These results are taken from ChEMBL document CHEMBL3784937, “Synthesis and biological evaluation of indeno[1,5]naphthyridines as topoisomerase I (TopI) inhibitors with antiproliferative activity” (Eur J Med Chem, 2016).

Molecules are shown by their SMILES. The source made the active and inactive calls. The calls are words filed in the database; no cut-off is given here. Bounds are passed on as bounds.

The species entered for assay [1] is Homo sapiens. The assay can be described thus: Inhibition of human recombinant topoisomerase 1B expressed in Saccharomyces cerevisiae using plasmid DNA as substrate assessed as DNA relaxation at 50 uM preincubated with enzyme for 15 mins followed by substrate addition after 50 secs by agarose gel electrophoresis.
A further assay relates to A549. The assay can be described thus: Cytotoxicity against human A549 cells assessed as growth inhibition after 48 hrs by CCK8 assay. In kind it is functional, cell-based. Conditions: A549, 48 h. A general note: Tetrazolium dyes change colour on reduction, which living cells bring about.
The nature of assay [2]: Inhibition of human recombinant topoisomerase 1B expressed in Saccharomyces cerevisiae using plasmid DNA as substrate assessed as DNA relaxation at 25 uM preincubated with enzyme for 15 mins followed by substrate addition after 50 secs by agarose gel electrophoresis.
Assay [3] in a line: Cytotoxicity against human SKOV3 cells assessed as growth inhibition after 48 hrs by CCK8 assay. In kind it is functional, cell-based. Conditions: SK-OV-3, 48 h.
For assay [4], the species on record is Homo sapiens. The assay can be described thus: Inhibition of human recombinant topoisomerase 1B expressed in Saccharomyces cerevisiae using plasmid DNA as substrate assessed as DNA relaxation at 100 uM preincubated with enzyme for 15 mins followed by substrate addition after 1 min by agarose gel electrophoresis.
Assay [5] is described as follows: Cytotoxicity against human BT20 cells assessed as growth inhibition after 48 hrs by CCK8 assay. Conditions: BT-20, 48 h. In kind it is functional, cell-based.
For assay [6], the species on record is Homo sapiens. The assay can be described thus: Inhibition of human recombinant topoisomerase 1B expressed in Saccharomyces cerevisiae using plasmid DNA as substrate assessed as DNA relaxation at 100 uM preincubated with enzyme for 15 mins followed by substrate addition after 3 min by agarose gel electrophoresis.
The species named for assay [7] is Homo sapiens. The assay can be described thus: Inhibition of human recombinant topoisomerase 1B expressed in Saccharomyces cerevisiae using plasmid DNA as substrate assessed as DNA relaxation at 100 uM preincubated with enzyme for 15 mins followed by substrate addition after 15 secs by agarose gel electrophoresis.
The species named for assay [8] is Homo sapiens. The assay can be described thus: Inhibition of human recombinant topoisomerase 1B expressed in Saccharomyces cerevisiae using plasmid DNA as substrate assessed as DNA relaxation at 100 uM preincubated with substrate for 15 mins followed by enzyme addition after 15 secs to 3 mins by agarose gel electrophoresis.
The species named for assay [9] is Homo sapiens. The assay can be described thus: Inhibition of human recombinant topoisomerase 1B expressed in Saccharomyces cerevisiae using plasmid DNA as substrate assessed as DNA relaxation at 100 uM after 15 secs to 3 mins by agarose gel electrophoresis.

A word on the IC50: it is the point on the concentration scale where inhibition reaches its midpoint. In the case of `O=C1c2ccccc2-c2c1c(-c1ccccc1)nc1cccnc21`, the inhibition result (in the assay filed under Homo sapiens [1]; in assay [2]; in the assay filed under Homo sapiens [4]; in the assay listed under Homo sapiens [6]; in the assay listed under Homo sapiens [7]) was “Active” each time. Further, the results for the IC50 (in the assay on A549; in assay [3]; in assay [5]) were 23.7 µM, 1.9 µM and 14.1 µM, respectively.
Turning to `FC(F)(F)c1ccc([C@H]2Nc3cccnc3[C@H]3c4ccccc4C[C@H]32)cc1` (relative stereo), the inhibition result (in the assay filed under Homo sapiens [1]; in [2]; in the assay filed under Homo sapiens [4]; in the assay filed under Homo sapiens [6]; in the assay filed under Homo sapiens [7]) was “Active” each time. Besides, the IC50 with A549 was 4.2 µM; in assay [3], over 100 µM; in [5], 63.9 µM.
For `O=[N+]([O-])c1ccc(-c2nc3cccnc3c3c2Cc2ccccc2-3)cc1`, the results for the IC50 (with A549; in assay [3]; in assay [5]) were 5.7 µM, 50.8 µM and 61.3 µM, respectively. For the same compound, the inhibition entry in the assay listed under Homo sapiens [4], in the assay filed under Homo sapiens [6] and in the assay listed under Homo sapiens [7] was “Active” throughout.
Regarding `Fc1cccc(-c2nc3cccnc3c3c2Cc2ccccc2-3)c1`, the inhibition result (in the assay filed under Homo sapiens [1]; in assay [2]; in the assay listed under Homo sapiens [4]; in the assay filed under Homo sapiens [6]; in the assay filed under Homo sapiens [7]) was “Active” throughout. Besides, the IC50 (with A549; in assay [3]; in assay [5]) was over 100 µM each time.
For `c1ccc([C@H]2Nc3cccnc3[C@H]3c4ccccc4C[C@H]32)cc1` (relative stereo), the IC50 in the assay with A549 is 5.3 µM; in [3], over 100 µM; in [5], over 100 µM. The inhibition result in the assay listed under Homo sapiens [4], in the assay listed under Homo sapiens [6] and in the assay listed under Homo sapiens [7] was “Active” each time.
On to `O=[N+]([O-])c1ccc([C@H]2Nc3cccnc3[C@H]3c4ccccc4C[C@H]32)cc1` (relative stereo), for which the figures for the IC50 (with A549; in assay [3]; in assay [5]) were 10.5 µM, over 100 µM and over 100 µM, respectively. The inhibition entry in the assay listed under Homo sapiens [4], in the assay listed under Homo sapiens [6] and in the assay filed under Homo sapiens [7] was “Active” in each case.
Take `c1ccc2c(c1)C[C@@H]1[C@H]2c2ncccc2N[C@@H]1c1ccncc1` (relative stereo): the results for the IC50 (with A549; in [3]; in [5]) were 10.6 µM, 55.4 µM and 24.4 µM, respectively. In addition, the inhibition entry in the assay listed under Homo sapiens [8], in the assay filed under Homo sapiens [4], in the assay filed under Homo sapiens [6] and in the assay filed under Homo sapiens [7] was “Active” each time.
Turning to `O=C1c2ccccc2-c2c1c(-c1ccc(F)cc1F)nc1cccnc21`, the IC50 was 34.1 µM with A549, over 100 µM in assay [3] and over 100 µM in assay [5]. In addition, the inhibition entry in the assay listed under Homo sapiens [4], in the assay listed under Homo sapiens [6] and in the assay filed under Homo sapiens [7] was “Active” throughout.
`c1ccc(-c2nc3cccnc3c3c2Cc2ccccc2-3)cc1`: the inhibition result (in the assay filed under Homo sapiens [1]; in [2]; in the assay listed under Homo sapiens [4]; in the assay filed under Homo sapiens [6]; in the assay listed under Homo sapiens [7]) was “Active” throughout. Moreover, the IC50 in the assay on A549 was over 100 µM; in assay [3], 47.9 µM; in [5], over 100 µM.
For the compound `O=C1c2ccccc2-c2c1c(-c1ccc(F)c(F)c1)nc1cccnc21`, the values for the IC50 (with A549; in [3]; in assay [5]) were 20.7 µM, over 100 µM and over 100 µM, respectively. Moreover, the inhibition result in the assay filed under Homo sapiens [4], in the assay listed under Homo sapiens [6] and in the assay listed under Homo sapiens [7] was “Active” in each case.
For the compound `c1ccc2c(c1)Cc1c(-c3ccncc3)nc3cccnc3c1-2`, the IC50 in the assay on A549 came to 2.9 µM; in assay [3], 10.5 µM; in assay [5], 32.9 µM. Moreover, the inhibition entry in the assay listed under Homo sapiens [4], in the assay listed under Homo sapiens [6] and in the assay filed under Homo sapiens [7] was “Active” throughout.
Take `Fc1ccc(-c2nc3cccnc3c3c2Cc2ccccc2-3)c(F)c1`: the IC50 was 1.7 µM in the assay with A549, 6.4 µM in assay [3] and 39.6 µM in assay [5]. Also, the inhibition entry in the assay filed under Homo sapiens [4], in the assay filed under Homo sapiens [6] and in the assay filed under Homo sapiens [7] was “Active” each time.
On to `Fc1cccc([C@H]2Nc3cccnc3[C@H]3c4ccccc4C[C@H]32)c1` (relative stereo), for which the inhibition result (in the assay listed under Homo sapiens [1]; in assay [2]; in the assay listed under Homo sapiens [8]; in the assay filed under Homo sapiens [4]; in the assay filed under Homo sapiens [6]; in the assay listed under Homo sapiens [7]) was “Active” in each case. Besides, the IC50 is 3.5 µM in the assay with A549, over 100 µM in assay [3] and 15.5 µM in assay [5].
`O=C1c2ccccc2-c2c1c(-c1cccc(F)c1)nc1cccnc21`: the inhibition result (in the assay listed under Homo sapiens [1]; in assay [2]; in the assay listed under Homo sapiens [4]; in the assay listed under Homo sapiens [6]; in the assay filed under Homo sapiens [7]) was “Active” throughout. The IC50 (in the assay with A549; in [3]; in assay [5]) was over 100 µM in each case.
On to `Fc1ccc([C@H]2Nc3cccnc3[C@H]3c4ccccc4C[C@H]32)cc1F` (relative stereo), for which the IC50 is 27.3 µM in the assay on A549, over 100 µM in assay [3] and over 100 µM in assay [5]. The inhibition entry in the assay filed under Homo sapiens [8], in the assay filed under Homo sapiens [4], in the assay filed under Homo sapiens [6] and in the assay listed under Homo sapiens [7] was “Active” in each case.
`Fc1ccc([C@H]2Nc3cccnc3[C@H]3c4ccccc4C[C@H]32)c(F)c1` (relative stereo): the values for the IC50 (with A549; in assay [3]; in assay [5]) were 6.4 µM, over 100 µM and 86.4 µM, respectively. Besides, the inhibition result in the assay filed under Homo sapiens [8], in the assay listed under Homo sapiens [4], in the assay listed under Homo sapiens [6] and in the assay listed under Homo sapiens [7] was “Active” throughout.
With `OC1c2ccccc2-c2c1c(-c1ccc(C(F)(F)F)cc1)nc1cccnc21` (stereo unspecified), the inhibition result (in the assay listed under Homo sapiens [1]; in assay [2]; in the assay filed under Homo sapiens [4]; in the assay filed under Homo sapiens [6]; in the assay listed under Homo sapiens [7]) was “Active” throughout. For the same compound, the IC50 (with A549; in assay [3]; in [5]) was over 100 µM in each case.
Turning to `OC1c2ccccc2-c2c1c(-c1ccccc1)nc1cccnc21` (stereo unspecified), the IC50 (in the assay with A549; in [3]; in assay [5]) was over 100 µM throughout. The inhibition entry in the assay filed under Homo sapiens [4], in the assay listed under Homo sapiens [6] and in the assay filed under Homo sapiens [7] was “Active” throughout.
`FC(F)(F)c1ccc(-c2nc3cccnc3c3c2Cc2ccccc2-3)cc1`: the IC50 (with A549; in assay [3]; in assay [5]) was over 100 µM in each case. For the same compound, the inhibition result in the assay filed under Homo sapiens [4], in the assay filed under Homo sapiens [6] and in the assay listed under Homo sapiens [7] was “Active” in each case.
Regarding `CC[C@@]1(O)C(=O)OCc2c1cc1n(c2=O)Cc2cc3ccccc3nc2-1` [CAMPTOTHECIN], the inhibition entry in the assay listed under Homo sapiens [1], in the assay listed under Homo sapiens [4], in the assay listed under Homo sapiens [9] and in the assay filed under Homo sapiens [7] was “Active” in each case. Also, the IC50 in [3] was 0.0055 µM; in assay [5], 0.07 µM. Further, the inhibition entry in the assay listed under Homo sapiens [6] is “inactive”.
Consider `Fc1ccc(-c2nc3cccnc3c3c2Cc2ccccc2-3)cc1F`, for which the IC50 with A549 is 48.6 µM; in [3], over 100 µM; in assay [5], over 100 µM. In addition, the inhibition result in the assay filed under Homo sapiens [4], in the assay listed under Homo sapiens [6] and in the assay listed under Homo sapiens [7] was “Active” in each case.
For `O=C1c2ccccc2-c2c1c(-c1ccc(C(F)(F)F)cc1)nc1cccnc21`, the IC50 (in the assay with A549; in [3]; in assay [5]) was over 100 µM each time. Also, the inhibition result in the assay filed under Homo sapiens [4], in the assay filed under Homo sapiens [6] and in the assay filed under Homo sapiens [7] was “Active” throughout.
